The source of these data is ChEMBL document CHEMBL1133713, “Novel 1,5-diphenylpyrazole nonnucleoside HIV-1 reverse transcriptase inhibitors with enhanced activity versus the delavirdine-resistant P236L mutant: lead identification and SAR of 3- and 4-substituted derivatives” (J Med Chem, 2000).

In general, inhibition refers to the change of the read-out against control, counted positive when it falls. Read a high inhibition as a strong effect. In general, IC50 refers to the concentration at which inhibition is half-maximal. Usually CC50 stands for the concentration that lowers cell viability or growth by half.

Experiment [1] deals with Human immunodeficiency virus type 1 reverse transcriptase (Human immunodeficiency virus 1) (UniProt Q72547). As to the kind of experiment: In vitro inhibition of wild type resistant reverse transcriptase at a concentration of 10 uM.
Experiment [2] concerns Human immunodeficiency virus type 1 reverse transcriptase (Human immunodeficiency virus 1), Q72547 [P236L]. As to the kind of experiment: In vitro Inhibition of mutant P236L reverse transcriptase at a concentration of 50 uM.
In experiment [3] the target is Human immunodeficiency virus type 1 reverse transcriptase (Human immunodeficiency virus 1) (UniProt Q72547). As to the kind of experiment: In vitro inhibition of wild type resistant reverse transcriptase at a concentration of 50 uM.
Experiment [4] has the same target. The experiment in a line: In vitro inhibition of wild type resistant reverse transcriptase at a concentration of 1 uM.
The test system of experiment [5] is Human immunodeficiency virus type 1 reverse transcriptase (Human immunodeficiency virus 1), Q72547 [P236L]. As to the kind of experiment: In vitro inhibition of mutant P236L reverse transcriptase at a concentration of 1 uM.
Experiment [6] shares this test system. The experiment in a line: In vitro inhibition of mutant P236L reverse transcriptase at a concentration of 10 uM.
The target of experiment [7] is Human immunodeficiency virus type 1 reverse transcriptase (Human immunodeficiency virus 1, UniProt Q72547, P236L). As to the kind of experiment: In vitro ability to inhibit mutant P236L reverse transcriptase.
Experiment [8] can be described thus: Cytotoxic concentration was determined. It is filed as functional.
Experiment [9] addresses Human immunodeficiency virus type 1 reverse transcriptase (Human immunodeficiency virus 1, UniProt Q72547). The experiment in a line: In vitro ability to inhibit wild type resistant (WT) reverse transcriptase.
The nature of experiment [10]: Effective dose for inhibition of viral replication in cell culture […]. It is filed as functional. To be noted: read-out: ED50 (the source's name).

Counter-ions that a name gives are not always drawn.

Turning to `Cc1nn(-c2ccccc2)c(-c2ccccc2)c1C`, the inhibition in [1] worked out at 0%; in experiment [2], 36%; in experiment [3], 0%; in experiment [4] it was 0%; in experiment [5], 0%; in [6] it was 3%.

Consider `Cc1nn(-c2ccccc2)c(-c2ccccc2)c1CC#N`, for which the inhibition in [1] stood at 71%; in experiment [2], 93%; in experiment [3] it was 90%; in experiment [4], 37%; in experiment [5], 47%; in experiment [6], 77%. Also, the IC50 amounted to 1.14 µM in experiment [7] and 2.31 µM in experiment [9]. Besides, the CC50 in [8] is > 10 µM. The EC50 in experiment [10] was 0.1 µM.

In the case of `Cc1nn(-c2ccccc2)c(-c2ccccc2)c1CC(N)=O`, the inhibition in experiment [1] was 36%; in [2] it was 29%; in experiment [3] it was 48%; in experiment [4] it was 11%; in experiment [5], 0%; in experiment [6] it was 0%.

As for `CCc1c(C)nn(-c2ccccc2)c1-c1ccccc1`, the inhibition in [1] was 42%; in [2], 94%; in experiment [3] it was 67%; in [4] it was 1%; in [5], 50%; in [6], 81%. For the same compound, the IC50 in [7] is 0.52 µM; in experiment [9], 14.5 µM.

Consider `CC(C)Nc1cccnc1N1CCN(C(=O)c2cc3cc(NS(C)(=O)=O)ccc3[nH]2)CC1` [DELAVIRDINE MESYLATE], for which the CC50 in [8] is > 10 µM. In experiment [10], the EC50 was determined as 0.0001 µM.

Regarding `CCc1cc(NCc2nc3c(Cl)ccc(Cl)c3o2)c(O)nc1C` [L-697661], the CC50 in experiment [8] was > 10 µM. In addition, the EC50 in experiment [10] was < 0.0001 µM.

`C=Cc1c(C)nn(-c2ccccc2)c1-c1ccccc1`: the inhibition turned out to be 10% in [1]; 59% in experiment [2]; 18% in experiment [3]; 3.6% in experiment [4]; 21% in [5]; 26% in experiment [6].

On to `Cc1nn(-c2ccccc2)c(-c2ccccc2)c1C(C)C`, for which the inhibition was found to be 18% in [1]; 13% in experiment [2]; 6% in experiment [3]; 0% in experiment [4]; 0% in [5]; 8% in experiment [6].

For the compound `Cc1nn(-c2ccccc2)c(-c2ccccc2)c1C(=O)O`, the inhibition in experiment [1] was found to be 0%; in experiment [2], 4%; in experiment [3] it was 1%; in experiment [4], 4%; in experiment [5], 0%; in [6] it was 1%.

Consider `C/N=C(/S)c1c(C)nn(-c2ccccc2)c1-c1ccccc1`, for which the inhibition in experiment [1], in experiment [2], in experiment [3], in experiment [4], in [5] and in experiment [6] was 0% throughout.

In the case of `CCc1c(CC(N)=O)nn(-c2ccccc2)c1-c1ccccc1`, the inhibition turned out to be 18% in experiment [1]; 52% in [2]; 39% in [3]; 12% in experiment [4]; 16% in experiment [5]; 29% in experiment [6].

Regarding `CCc1c(CC(=O)O)nn(-c2ccccc2)c1-c1ccccc1`, the inhibition in [1] was found to be 0%; in [2] it was 14%; in experiment [3], 0%; in experiment [4], 0%; in experiment [5], 0%; in experiment [6] it was 13%.

With `CCc1c(CC(=O)NC)nn(-c2ccccc2)c1-c1ccccc1`, the inhibition stood at 3% in [1]; 12% in experiment [2]; 7% in experiment [3]; 1% in experiment [4]; 6% in experiment [5]; 8% in experiment [6].

Consider `COCc1c(C)nn(-c2ccccc2)c1-c1ccccc1`, for which the inhibition in experiment [1] is 0%; in experiment [2] it was 50%; in [3], 14%; in experiment [4] it was 0%; in [5] it was 0%; in experiment [6], 18%.

For `CCc1c(CCO)nn(-c2ccccc2)c1-c1ccccc1`, the inhibition in experiment [1] stood at 18%; in [2], 95%; in experiment [3], 42%; in experiment [4] it was 0%; in experiment [5], 58%; in experiment [6], 84%. Moreover, the IC50 in experiment [7] was 0.65 µM; in experiment [9] it was > 50 µM.

Turning to `Cc1nn(-c2ccccc2)c(-c2ccccc2)c1CCO`, the inhibition in experiment [1] worked out at 0%; in experiment [2], 28%; in experiment [3], 0%; in experiment [4] it was 0%; in experiment [5], 12%; in [6], 8%.

With `CC#Cc1c(C)nn(-c2ccccc2)c1-c1ccccc1`, the inhibition in experiment [1] came out at 37%; in experiment [2], 93%; in [3] it was 72%; in [4], 0%; in experiment [5], 38%; in experiment [6], 80%. Moreover, the results for the half-maximal inhibitory concentration (IC50) in experiment [7] and in [9] were 1.54 µM and 13.4 µM, respectively.

Consider `CCCc1c(C)nn(-c2ccccc2)c1-c1ccccc1`, for which the inhibition in experiment [1] came out at 31%; in experiment [2], 71%; in experiment [3] it was 49%; in experiment [4], 14%; in [5] it was 4%; in [6], 56%.

For the compound `CNC(=O)c1c(C)nn(-c2ccccc2)c1-c1ccccc1`, the inhibition in [1] is 7%; in [2], 0%; in experiment [3] it was 3%; in experiment [4], 5%; in experiment [5], 15%; in experiment [6], 0%.

Regarding `CCc1c(CC#N)nn(-c2ccccc2)c1-c1ccccc1`, the inhibition was 15% in experiment [1]; 72% in experiment [2]; 39% in [3]; 2% in [4]; 14% in [5]; 46% in experiment [6].

In the case of `Cc1ccnc2c1NC(=O)c1cccnc1N2C1CC1` [NEVIRAPINE], in experiment [8], the half-maximal cytotoxic concentration (CC50) was > 10 µM. Further, the EC50 in [10] is 0.01 µM.

In the case of `CCc1c(CC(=O)OC)nn(-c2ccccc2)c1-c1ccccc1`, the inhibition worked out at 20% in experiment [1]; 55% in experiment [2]; 34% in [3]; 5% in [4]; 21% in experiment [5]; 41% in experiment [6].

Consider `Cc1nn(-c2ccccc2)c(-c2ccccc2)c1CC(=O)O`, for which the inhibition in [1] was 0%; in [2], 0%; in experiment [3] it was 3%; in experiment [4], 0%; in [5], 0%; in [6], 0%.

For `CCc1c(CCOC)nn(-c2ccccc2)c1-c1ccccc1`, the inhibition amounted to 29% in [1]; 71% in experiment [2]; 33% in [3]; 22% in [4]; 15% in [5]; 47% in experiment [6].
